Where two headings read alike, the source gives them in different places.
Assays:
MDA-MB-231 cells [1] = assay: Apoptosis analysis (FITC-Annexin V/PI flow cytometry); format: cell-based, human; conditions: for dead cells: 72 h after treatment; for apoptotic cells: after 24 h
Experimental: Apoptosis was measured by flow cytometry via double staining with FITC-Annexin V and PI (cat. no. 556570, BD Pharmigen^TM). Cells were prepared in the same way as described for the cell-cycle analysis, except that the cell-synchronization step was omitted in this case. After treatment with the test compounds for 24 or 72 h, the cells were harvested by trypsinization and centrifuged for 10 min at 150 rcf. The pellet was resuspended in annexin V binding buffer at a concentration of 10^6 cells/mL. Then, 100 μL of this suspension was collected and stained with 5 μL of PI and FITC-Annexin V for 15 min at room temperature in the dark. After this, 400 μL of annexin V binding buffer was added, and the samples were analyzed using a BD Accuri C5 cytometer with excitation at 488 nm and emission detected with 533/30 nm (FITC) and 670 LP nm (PI) filters.

MDA-MB-231 cells [2] = assay: Cell-cycle analysis by flow cytometry; format: cell-based, human; conditions: 48 h, 1 or 3 μM, synchronized culture
Experimental: MDA-MB-231 cells were added at a density of 5 x 10^5 cells in 25 cm^2 culture bottles (TPP^TM) with 5 mL of medium supplemented with 10% FBS. After 36 h, the media was removed, and 5 mL of fresh media without FBS was added. The bottles were then incubated for 48 h for cell-cycle synchronization. Then, the cells were treated with the test compounds (1 or 3 μM) for 48 h. Subsequently, the cells were harvested by trypsinization, and their chromatin was fixed and stained following the manufacturer’s instructions (cat. no. 340242, BD Biosciences^TM). Shortly thereafter, the cells were centrifuged at 300 rcf for 5 min and resuspended in 1 mL of buffer (sodium citrate, sucrose, and DMSO) three times. From this suspension, 1 x 10^6 cells were centrifuged at 400 rcf for 5 min, resuspended in 250 μL of solution A (trypsin in a spermine tetrahydrochloride detergent buffer) and incubated for 10 min at room temperature. Next, 200 μL of solution B (trypsin inhibitor and ribonuclease A in citrate-stabilizing buffer with spermine tetrahydrochloride) was added, and the suspension was incubated for 10 min at room temperature. Finally, 200 μL of solution C (propidium iodide (PI) and spermine tetrahydrochloride in citrate stabilizing buffer) was added, and the sample was incubated for 15 min in the refrigerator. The samples were then analyzed by flow cytometry using a BD Accuri C5 (BD Biosciences^TM) system (excitation at 488 nm and emission detected with a 585/40 nm filter).

Cytotoxicity assay (MTS) = format: cell-based, human; conditions: human, FGH cells (normal fibroblasts); 72 h MTS assay, normal fibroblasts
Experimental: (§1) Then, 20 μL of the MTS reagent (CellTiter 96® AQueous One Solution Cell Proliferation Assay, Promega) was added to the wells, and the cells were incubated for 3 to 4 h at 37°C. Next, absorbance was measured at 490 nm using a spectrophotometer (SpectraMax Plus384, Molecular Devices). The percentage of unviable cells was determined in relation to the control wells, and at least two independent experiments were carried out for each test compound.

DU-145 = assay: Cytotoxicity assay (MTS); format: cell-based, human; conditions: 72 h MTS assay
Experimental: as §1, with “MDA-MB-231, DU-145 and FGH cell lines were plated at a concentration of 4 x 10^3 cells/well in 96-well culture plates (TPP^TM). After 24 h, 10 concentrations (100–0.16 μM) of the test compounds were added in triplicate to the wells, and the plates were incubated for 72 h at 37°C in a 5% CO2 humidified atmosphere (if necessary). Then,” for “Then,”

MDA-MB-231 = assay: Cytotoxicity assay (MTS); format: cell-based, human; conditions: for IC50: 72 h MTS assay; for dead cells in MTS studies: similar concentrations as apoptosis analyses
Experimental: as §1, with “MDA-MB-231, DU-145 and FGH cell lines were plated at a concentration of 4 x 10^3 cells/well in 96-well culture plates (TPP^TM). After 24 h, 10 concentrations (100–0.16 μM) of the test compounds were added in triplicate to the wells, and the plates were incubated for 72 h at 37°C in a 5% CO2 humidified atmosphere (if necessary). Then,” for “Then,”

tubulin [3] = target: T1, tubulin (Sus scrofa, UniProt P02550+P02554); assay: Light-scattering-based tubulin polymerization assay; format: biochemical; conditions: read-out: IC50 Tubulin assembly
Experimental: To independently confirm the ability of the compounds to inhibit tubulin assembly, a second tubulin polymerization assay was carried out. We added 20 μL aliquots of the test compounds solubilized in 10% DMSO (in triplicate) to the wells of a 96-well culture plate (TPP^TM). Then, 180 μL of 3 mg/mL tubulin (>97% pure, HTS03, Cytoskeleton) in G-PEM buffer (80 mM PIPES, 1 mM EGTA, 2 mM GTP, 1 mM MgCl2 and glycerol 5%, pH 7,0) was added to the wells, and the absorbance at 340 nm was measured every 40 s for 1 h using a SpectraMax Plus384.

MDA-MB-231 cells [4] = assay: Wound healing assay; format: cell-based, human; conditions: 10 μM, 22 h
Experimental: To qualitatively evaluate directional cell migration, MDA-MB-231 cells were seeded at a density of 1 x 10^5 cells/well in 24-well culture plates (TPP^TM) and allowed to reach a confluent monolayer. Then, the wells were scratched using a sterile 100 μL pipette tip. The medium was removed and fresh medium without FBS was added to clean the debris. Next, the cells were incubated for 22 h at 37°C with supplemented medium (10% FBS) and different concentrations of test compounds (10 μM, 1 μM and 0.250 μM). When measuring the wound closure, the wells were photographed under a 4X objective (Optiphase) at 0 and 22 h. The images were analyzed using Image J software, and two independent experiments were conducted in triplicate.

FGH = assay: Cytotoxicity assay (MTS); format: cell-based, human; conditions: for IC50: 72 h MTS assay, normal fibroblasts; for cell death in FGH cells: concentrations around the IC50 values in MDA-MB-231 cells
Experimental: as §1

MDA-MB-231 cells [5] = assay: Boyden chamber (transwell) migration assay; format: cell-based, human; conditions: MDA-MB-231, transwell, 6 h, read-out: IC50 Cell migration
Experimental: Transwells containing 0.3 cm^2 inserts with 8.0 μm pore polyethylene terephthalate membranes (Corning Falcon^TM) were used to quantify cell migration. MDA-MB-231 cells were added at a density of 4 x 10^4 cells/insert in serum-free media (300 μL) in the upper chambers. In the lower chambers, 700 μL of medium supplemented with 10% FBS was added. […] The systems were incubated at 37°C for 6 h. Next, the cells inside the insert were removed with a cotton swab and the cells under the membrane were fixed with methanol and stained with toluidine blue for 5 min. Pictures of the stained membrane were taken under a 10X objective (Optiphase), and the cells were quantified using NIS Elements software (NIKON). Two independent experiments were conducted in duplicate.

tubulin [6] = target: T1, tubulin; assay: Fluorescence-based tubulin polymerization assay; format: biochemical; conditions: read-out: IC50 Tubulin assembly
Experimental: Tubulin polymerization assay kit B[…] (Cytoskeleton) was used according to the manufacturer's instructions. […] The curves were normalized, and the percentage of inhibition was calculated by comparing the polymerization reaction at 25 min relative to vehicle control.

T1 sequence (P02550 whole entry): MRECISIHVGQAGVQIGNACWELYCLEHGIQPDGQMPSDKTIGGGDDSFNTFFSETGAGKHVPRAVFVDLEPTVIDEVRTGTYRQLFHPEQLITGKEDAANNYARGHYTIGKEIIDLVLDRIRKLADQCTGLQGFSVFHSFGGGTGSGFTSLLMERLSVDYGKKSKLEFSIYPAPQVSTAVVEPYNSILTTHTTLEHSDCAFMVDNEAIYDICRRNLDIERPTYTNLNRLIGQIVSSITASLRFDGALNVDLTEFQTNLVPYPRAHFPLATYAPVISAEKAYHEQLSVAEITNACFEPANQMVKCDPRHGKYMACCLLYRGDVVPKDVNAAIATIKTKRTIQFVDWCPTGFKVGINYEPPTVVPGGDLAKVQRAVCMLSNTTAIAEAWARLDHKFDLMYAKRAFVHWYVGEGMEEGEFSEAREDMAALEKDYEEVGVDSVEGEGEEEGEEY
T1 sequence (P02554 whole entry): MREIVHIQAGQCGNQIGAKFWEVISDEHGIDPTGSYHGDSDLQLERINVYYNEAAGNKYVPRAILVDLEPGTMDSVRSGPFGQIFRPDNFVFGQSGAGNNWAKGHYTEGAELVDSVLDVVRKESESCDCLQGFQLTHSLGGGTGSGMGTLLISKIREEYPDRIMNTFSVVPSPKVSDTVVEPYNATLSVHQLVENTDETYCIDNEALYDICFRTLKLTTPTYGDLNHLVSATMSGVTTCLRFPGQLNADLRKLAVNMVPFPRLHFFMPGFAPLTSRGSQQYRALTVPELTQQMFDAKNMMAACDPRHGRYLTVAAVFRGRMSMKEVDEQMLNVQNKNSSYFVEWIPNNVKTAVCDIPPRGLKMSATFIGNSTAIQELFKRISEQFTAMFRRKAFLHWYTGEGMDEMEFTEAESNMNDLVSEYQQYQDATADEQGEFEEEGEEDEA

IC50 (MDA-MB-231 cells [5]; Homo sapiens) [nM]	Compound	dead cells (MDA-MB-231 cells [1]) [%]	apoptotic cells (MDA-MB-231 cells [1]) [%]	cells arrested in G2 (MDA-MB-231 cells [2]) [%]	IC50 at 72 h (Cytotoxicity assay (MTS)) [nM]	IC50 (DU-145) [nM]	IC50 (MDA-MB-231) [nM]	IC50 (tubulin [3]) [nM]	inhibition of wound closure (cell migration) (MDA-MB-231 cells [4])	IC50 (FGH) [nM]	cell death in FGH cells (FGH) [%]	dead cells in MTS studies (MDA-MB-231) [%]	IC50 (MDA-MB-231 cells [5]) [nM]	IC50 (tubulin [6]) [nM]	SI (selectivity index) (FGH)	IC50 (DU-145; Homo sapiens, DU-145) [nM]	IC50 (MDA-MB-231; Homo sapiens, MDA-MB-231) [nM]
	COc1cc2c(c(OC)c1OC)-c1ccc(OC)c(=O)cc1[C@@H](NC(C)=O)CC2 [Colchicine, colchicine, reference compound]	72	65	42.9	< 20	25 ± 3	20 ± 10										
	O=C1CCCC2=C1C(c1cccs1)c1ccc3ccccc3c1N2 (racemic) [Compound 9]	75	54.6	53.6		1000 ± 300	1100 ± 200	5000 ± 2000	inhibit cell migration	> 100000	13	71	1345 ± 7				
	O=C1CCCC2=C1C(c1ccc3c(c1)OCO3)c1ccc3ccccc3c1N2 (stereo not drawn) [Compound 6]	55	69.4	53.6		3200 ± 700	3000 ± 1000		inhibit cell migration	> 100000	3	51	1700 ± 700	13000 ± 2000			
294 ± 5	O=C1CCCC2=C1[C@@H](c1cccc([N+](=O)[O-])c1)c1ccc3ccccc3c1N2 [Compound 7]	67	54.2	49.1	> 100000				inhibit cell migration		20	69			> 100	308 ± 50	190 ± 7

From publication PMC4980028, “Discovery of a Series of Acridinones as Mechanism-Based Tubulin Assembly Inhibitors with Anticancer Activity” (PLoS ONE, 2016)
